Values quoted from earlier work, collected in patent publication US8653023B1, “Dual beneficial effect of dopamine enhancing and neuroprotective actions of PKC delta inhibitors for treatment of Parkinson's disease” (Iowa State University Research Foundation, Inc., priority 2006, dated 2014).

System: bone marrow-derived macrophages
Settings: cited from earlier work

CC(=O)c1c(O)c(C)c(O)c(Cc2c(O)c3c(c(C(=O)/C=C/c4ccccc4)c2O)OC(C)(C)C=C3)c1O [rottlerin]
silica-induced apoptosis as measured by DNA fragmentation: reduced
